Test results: US4837239A, “Cardiotonic phosphodiesterase inhibitors complexed with water soluble vitamins” (Syntex (U.S.A.) Inc., priority 1986, dated 1989)
Converted amounts (≈) assume the structure as drawn.

Columns and labels:
Assay type in all cases: physicochemical
[1] = Solution-phase stability / shelf life (kinetic studies)
Description: A significant advantage of the lyophilization procedure of the present invention is that it provides for an extended shelf life as compared to that of the class of ocyalkylamides or even their vitamin complexes in solution. For example, the shelf life of a solution of the ascorbic acid complex of N-cyclohexyl-N-methyl-4-(2-oxo-1,2,3,5-tetrahydro-imidazo-[2,1-b]quinazolin-7-yl) oxybutyramide is only about 5 days. The lyophilized product prepared according to the formulation method of the present invention can be expected to permit a shelf life of at least two years.
The reason for the generally brief shelf lives in solution is that the class of oxyalkylamides has limited solution-phase stability. […] At pH 2, at which the compound is formulated, shelf life (T90) is less than a week. In a concentrated form in neat dimethylacetamide, polyethylene glycol or the like, the T90 is only about three weeks.

[2] = Electrochemical titration of excess ascorbic acid with the drug (FIGS. 4a and 4b); conditions: titration of excess ascorbic acid with hydrogen sulfate salt, in solution
Description: (§1) The present inventors have discovered that the compounds of Formula (I) form water-soluble complexes with water-soluble vitamins such as ascorbic acid, nicotinamide thiamine and pyridoxine. The phenomenon of complex formation can be confirmed by phase solubility experiments (FIGS. 1 and 2), and by spectral shifts and changes in electrochemical responses of the vitamins in the presence of these compounds (FIGS. 4a and 4b). For example, FIGS. 4a and 4b show the results of a titration of excess ascorbic acid with the hydrogen sulfate salt of N-cyclohexyl-N-methyl-4-(2-oxo-1,2,3,5-tetrahydroimidazo-[2,1-b]quinazolin-7-yl)oxybutyramide. It is hypothesized that the relatively planar tricyclic structure of the compound and the presence of non-bonding electrons on ring heteroatoms renders the compound capable of charge donation to suitable acceptors. In addition, the compound may also function as a charge acceptor due to the presence of a formal positive charge on a ring nitrogen at low pH (i.e., due to the presence of the planar cyclic cationic portion of the compound). Thus, the interaction with the water-soluble vitamin may be defined in terms of the existence of a charge transfer complex, resulting in enhanced water-solubility. […] The decrease in current is due to a lower diffusion coefficient of the complex.

[3] = Water solubility after complexation with ascorbic acid and lyophilization
Description: (§2) The improvement in solubility in the presence of water-solublevitamins is specifically illustrated by FIGS. 1 and 2. […] The solubility is still further enhanced by the lyophilization process of the present invention. For example, if the lyophilization procedure described below is followed, N-cyclohexyl-N-methyl-4-(2-oxo-1,2,3,5-tetrahydroimidazo-[2,1-b]quinazolin-7-yl)oxybutyramide is water-soluble to the extent of about 5,000 μg/ml at pH2 using 10% ascorbic acid (See FIG. 5).
6.5 grams of the sulfate salt of N-cyclohexyl-N-methyl-4-(2-oxo-1,2,3,5-tetrahydroimidazo[2,1-b]quinazolin- 7-yl)oxyburyamide were dissolved, along with 100 grams of ascorbic acid, 500 ml of tert-butyl alcohol, sufficient sulfuric acid to adjust the pH to 2.0, and sufficient water to bring the volume to 1 liter. The solution was stirred at room temperature for about 10 minutes and filtered with a 0.22 micron Milipore™ cellulose filter. 5 Milliliters of the solution were then dispensed into a 10 ml vial for lyophilization. In the lyophilization procedure, the condenser temperature was initially set to give a shelf temperature of -60° C., and the pressure was initially atmospheric. After the product had frozen, the pressure was gradually dropped to 10 milliTorr, and the vacuum was held for about a day. […]

[4] = Water solubility (phase solubility experiments) with and without water-soluble vitamin; conditions: for solubility: pH 2, read-out: water solubility (free base equivalent)
Description: as §1, §2

[5] = Solid state stability in lyophilized powders at accelerated temperature and various states of humidity; conditions: for Appearance (Color): after 7 days
Description: Accordingly, in order to maximize the stability of such a compound for parenteral administration therapy, the present inventors have developed a lyophilization procedure. The lyophilization substantially removes water: the primary nucleophile responsible for the degradative hydrolysis of the compound in solution.
^a Made from 2 mL of tBuOH/AA/H2 O (50/10/40) with pH = 2.0 and
N--cyclohexylN--methyl4-(2-oxo-1,2,3,5-tetrahydroimidazo-2,1-bquinazolin-
-yl)oxybutyramide 130 mL
^b Capped means: not stored in the desiccator with the vial sealed.
47% RH capped and 47% RH holes mean: stored in a 47% relatively humidity
desiccator with the vial capped or covered with aluminum foil with 4 hole
in the foil respectively.
6.5 grams of the sulfate salt of N-cyclohexyl-N-methyl-4-(2-oxo-1,2,3,5-tetrahydroimidazo[2,1-b]quinazolin- 7-yl)oxyburyamide were dissolved, along with 100 grams of ascorbic acid, 500 ml of tert-butyl alcohol, sufficient sulfuric acid to adjust the pH to 2.0, and sufficient water to bring the volume to 1 liter. The solution was stirred at room temperature for about 10 minutes and filtered with a 0.22 micron Milipore™ cellulose filter. 5 Milliliters of the solution were then dispensed into a 10 ml vial for lyophilization. In the lyophilization procedure, the condenser temperature was initially set to give a shelf temperature of -60° C., and the pressure was initially atmospheric. After the product had frozen, the pressure was gradually dropped to 10 milliTorr, and the vacuum was held for about a day. Still under vacuum, the shelf temperature was slowly raised by incrementally increasing the temperature to the following values for about 6 hours at each value: -40° C., -20° C.; -10° C.; 0° C.; and 15°-25° C. During this lyophilization process, all the butanol and water were removed. The final lyophilized powder comprised 32.5 milligrams of N-cyclohexyl-N-methyl-4-(2-oxo-1,2,3,5-tetrahydroimidazo-[2,1-b]quinazolin-7-yl)oxybutyramide sulfate salt and 500 milligrams of ascorbic acid, some residual water (4% w/w) and tert-butyl alcohol (3% w/w) per vial.

[6] = 40 °C., 47% RH capped (first line)
[7] = 40 °C., 47% RH capped (second line)

CN(C(=O)CCCOc1ccc2c(c1)CN1CC(=O)NC1=N2)C1CCCCC1 [N-cyclohexyl-N-methyl-4-(2-oxo-1,2,3,5-tetrahydroimidazo-[2,1-b]quinazolin-7-yl)oxybutyramide]
T90 ([1]; concentrated form in neat dimethylacetamide, polyethylene glycol or the like): about three | pH of maximum stability ([1]; in solution): ~6 | estimation shelf life in solution ([1]; in solution, about pH 6): six | shelf life (T90) ([1]; in solution, pH 2): less than a week | degradation catalysis ([1]; kinetic studies in solution): both acid and base catalyzed | electrochemical response of ascorbic acid [2]: a shift in the peak potential and a reduction of the peak current of ascorbic acid | solubility ([3]; complexation with a water soluble vitamin and lyophilization (FIG. 5)): enhancement of solubility | solubility ([3]; pH 2, pH2, 10% ascorbic acid, lyophilized (FIG. 5), read-out: water solubility after lyophilization procedure): ~5000 µg/mL (≈ 13 mM) | water solubility ([4]; in the presence of water soluble vitamins, and ethanol and propylene glycol (FIG. 2)): improved water solubility | water solubility ([4]; in the presence of water-soluble vitamins (FIG. 1)): improved water solubility | solubility ([4]; pH2, absence of water-soluble vitamin): ~120 µg/mL | solubility ([4]; water with 10% ascorbic acid, pH2, in the presence of 10% (about 0.6M) ascorbic acid): ~420 µg/mL | % Remaining, 7 days ([5]; 5 °C., Capped): 99.2% | Appearance (Color) ([5]; 5 °C., Capped): White | % Remaining, 7 days ([5]; 25 °C., 47% RH capped): 100% | % Remaining, 36 days ([5]; 25 °C., 47% RH capped): 100% | Appearance (Color) ([5]; 25 °C., 47% RH capped): White | % Remaining, 7 days ([5]; 25 °C., Capped): 100% | % Remaining, 36 days ([5]; 25 °C., Capped): 99.7% | Appearance (Color) ([5]; 25 °C., Capped): White | % Remaining, 7 days [5, 6]: 100% | % Remaining, 36 days [5, 6]: 96.7% | Appearance (Color) [5, 6]: Light yellow | % Remaining, 5 days ([5]; 40 °C., 47% RH capped (second line), 5 days): 99.2% | % Remaining, 7 days [5, 7]: 99.2% | % Remaining, 36 days [5, 7]: 94.5% | Appearance (Color) [5, 7]: Light yellow | % Remaining, 7 days ([5]; 40 °C., Capped): 100% | % Remaining, 36 days ([5]; 40 °C., Capped): 94.4% | Appearance (Color) ([5]; 40 °C., Capped): Light yellow | % Remaining, 7 days ([5]; RT, 47% RH holes): 100% | % Remaining, 36 days ([5]; RT, 47% RH holes): 100% | Appearance (Color) ([5]; RT, 47% RH holes): White
